Measured values taken from PubChem BioAssay (NCI).
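Interpolation was linear, between the two tested concentrations surrounding the appropriate level; five concentrations were tested over 48 hours in 96-well plates. GI50 is the concentration that inhibits growth by half. TGI is the concentration that stops growth completely.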

What was measured:
Assay in all cases: growth of human tumour cells (NCI), 48 h
KM12 colon = tested on: KM12 colon
MOLT-4 leukemia = tested on: MOLT-4 leukemia
ACHN renal = tested on: ACHN renal
SN12C renal = tested on: SN12C renal
SNB-75 CNS = tested on: SNB-75 CNS
OVCAR-3 ovarian = tested on: OVCAR-3 ovarian
LOX IMVI melanoma = tested on: LOX IMVI melanoma
SK-OV-3 ovarian = tested on: SK-OV-3 ovarian
SF-539 CNS = tested on: SF-539 CNS
HL-60(TB) leukemia = tested on: HL-60(TB) leukemia

In the case of CCCCCCCCCCCC[n+]1ccc(C(N)=O)cc1, the GI50 (KM12 colon) is reported as 1.43 µM, the TGI (KM12 colon) is reported as 3 µM and the GI50 (MOLT-4 leukemia) is reported as 3.29 µM. It also gave a TGI (MOLT-4 leukemia) of over 100 µM, a GI50 (ACHN renal) of 6.06 µM and a TGI (ACHN renal) of 22 µM. The GI50 (SN12C renal) was 3.61 µM, the TGI (SN12C renal) was 12.6 µM and the GI50 (SNB-75 CNS) was 2.08 µM. For the same compound, the TGI (SNB-75 CNS) was 6.61 µM, the GI50 (OVCAR-3 ovarian) was 2.28 µM and the TGI (OVCAR-3 ovarian) was 8.72 µM. It also gave a GI50 (LOX IMVI melanoma) of 2.4 µM, a TGI (LOX IMVI melanoma) of 13.2 µM and a GI50 (SK-OV-3 ovarian) of 4.18 µM. It also gave a TGI (SK-OV-3 ovarian) of 15.2 µM, a GI50 (SF-539 CNS) of 2.36 µM and a TGI (SF-539 CNS) of 6.31 µM.

N#CN1CCC=C(c2cc3ccccc3[nH]2)C1 gave a TGI (KM12 colon) of over 448 µM, a TGI (MOLT-4 leukemia) of over 448 µM and a TGI (ACHN renal) of over 448 µM. It also gave a TGI (SN12C renal) of over 448 µM, a TGI (OVCAR-3 ovarian) of 339 µM and a TGI (LOX IMVI melanoma) of over 448 µM. It also gave a TGI (SK-OV-3 ovarian) of over 448 µM, a TGI (SF-539 CNS) of over 448 µM and a TGI (HL-60(TB) leukemia) of over 448 µM.

CC12CC3CC(C1)CC(N=[N+]=[N-])(C3)C2 was tested, and the TGI (KM12 colon) was over 100 µM, the TGI (MOLT-4 leukemia) was over 100 µM and the TGI (ACHN renal) was over 100 µM. The TGI (SN12C renal) was over 100 µM, the TGI (SNB-75 CNS) was over 100 µM and the TGI (OVCAR-3 ovarian) was over 100 µM. For the same compound, the TGI (LOX IMVI melanoma) was over 100 µM, the TGI (SK-OV-3 ovarian) was over 100 µM and the TGI (SF-539 CNS) was over 100 µM.

O=C(/C=C1/NC(=O)CS1)Nc1ccccc1 showed a TGI (KM12 colon) of over 100 µM, a TGI (MOLT-4 leukemia) of over 100 µM and a TGI (SN12C renal) of over 100 µM. It also gave a TGI (SNB-75 CNS) of over 100 µM, a TGI (OVCAR-3 ovarian) of over 100 µM and a TGI (SK-OV-3 ovarian) of over 100 µM. The TGI (SF-539 CNS) was over 100 µM and the TGI (HL-60(TB) leukemia) was over 100 µM.

CC1/C(=N/Nc2ccc([N+](=O)[O-])cc2)CC2C3(C)CCC2(C(C)C(=O)O)C(=O)C13 (stereo not given) showed a GI50 (KM12 colon) of 11.3 µM, a TGI (KM12 colon) of over 100 µM and a GI50 (MOLT-4 leukemia) of 22.5 µM. For the same compound, the TGI (MOLT-4 leukemia) was over 100 µM, the GI50 (ACHN renal) was 6.33 µM and the TGI (ACHN renal) was over 100 µM. It also gave a GI50 (SN12C renal) of 60.9 µM, a TGI (SN12C renal) of over 100 µM and a GI50 (SNB-75 CNS) of over 100 µM. The TGI (SNB-75 CNS) was over 100 µM, the GI50 (OVCAR-3 ovarian) was 1.72 µM and the TGI (OVCAR-3 ovarian) was over 100 µM. It also gave a GI50 (LOX IMVI melanoma) of 75.3 µM, a TGI (LOX IMVI melanoma) of over 100 µM and a GI50 (SK-OV-3 ovarian) of over 100 µM. For the same compound, the TGI (SK-OV-3 ovarian) was over 100 µM, the GI50 (SF-539 CNS) was 5.44 µM and the TGI (SF-539 CNS) was over 100 µM.

In the case of CC1=Nn2c(nnc2-c2ccc(N)cc2)NC(C)(C)C1, the TGI (KM12 colon) is reported as over 100 µM, the TGI (MOLT-4 leukemia) is reported as over 100 µM and the TGI (ACHN renal) is reported as over 100 µM. It also gave a TGI (OVCAR-3 ovarian) of over 100 µM, a TGI (LOX IMVI melanoma) of over 100 µM and a TGI (SK-OV-3 ovarian) of over 100 µM. It also gave a TGI (SF-539 CNS) of over 100 µM and a TGI (HL-60(TB) leukemia) of over 100 µM.

COc1ccc2c(c1)CC1c3c(cc4c(c3-2)OCO4)CCN1C (stereo not given) was tested, and the TGI (KM12 colon) was over 100 µM, the TGI (MOLT-4 leukemia) was 64.9 µM and the TGI (ACHN renal) was 36.1 µM. For the same compound, the TGI (SN12C renal) was over 100 µM, the TGI (SNB-75 CNS) was 56.9 µM and the TGI (OVCAR-3 ovarian) was 88.4 µM. It also gave a TGI (SK-OV-3 ovarian) of 69.1 µM and a TGI (SF-539 CNS) of over 100 µM.

Compound CSC1C(=O)c2ccccc2/C(=N/Nc2nc3ccccc3s2)C1C (stereo not given) has a GI50 (KM12 colon) of 18.7 µM, a TGI (KM12 colon) of over 50 µM and a GI50 (ACHN renal) of 5.65 µM. It also gave a TGI (ACHN renal) of 11.7 µM, a GI50 (SN12C renal) of 7.26 µM and a TGI (SN12C renal) of 14.2 µM. For the same compound, the GI50 (OVCAR-3 ovarian) was 7.98 µM, the TGI (OVCAR-3 ovarian) was 17.6 µM and the GI50 (LOX IMVI melanoma) was 5.62 µM. For the same compound, the TGI (LOX IMVI melanoma) was 11.6 µM, the GI50 (SK-OV-3 ovarian) was 35.2 µM and the TGI (SK-OV-3 ovarian) was over 50 µM. It also gave a GI50 (SF-539 CNS) of 12.5 µM, a TGI (SF-539 CNS) of 21.8 µM and a GI50 (HL-60(TB) leukemia) of 2.14 µM. It also gave a TGI (HL-60(TB) leukemia) of 43 µM.

O=C1C(=O)c2ccccc2C(O)=C1CCCCCCCCC1CCCCC1 was tested, and the TGI (KM12 colon) was 23.1 µM, the TGI (MOLT-4 leukemia) was 12.3 µM and the TGI (ACHN renal) was 15.6 µM. It also gave a TGI (SN12C renal) of 22.3 µM, a TGI (SNB-75 CNS) of 22.9 µM and a TGI (OVCAR-3 ovarian) of 26.5 µM. The TGI (LOX IMVI melanoma) was 15.8 µM, the TGI (SK-OV-3 ovarian) was 54.4 µM and the TGI (SF-539 CNS) was 22.4 µM.

For NC(CCSC(F)F)C(=O)O (stereo not given), the TGI (KM12 colon) was over 100 µM, the TGI (MOLT-4 leukemia) was over 100 µM and the TGI (ACHN renal) was over 100 µM. For the same compound, the TGI (SN12C renal) was over 100 µM, the TGI (SNB-75 CNS) was over 100 µM and the TGI (OVCAR-3 ovarian) was over 100 µM. For the same compound, the TGI (LOX IMVI melanoma) was over 100 µM, the TGI (SK-OV-3 ovarian) was over 100 µM and the TGI (SF-539 CNS) was over 100 µM.

Compound O=C1c2c(nc3ccccc3c2-c2ccccc2)CN1Nc1ccccc1 has a TGI (KM12 colon) of over 100 µM, a TGI (MOLT-4 leukemia) of over 100 µM and a TGI (SN12C renal) of over 100 µM. It also gave a TGI (OVCAR-3 ovarian) of over 100 µM, a TGI (LOX IMVI melanoma) of over 100 µM and a TGI (SK-OV-3 ovarian) of over 100 µM. For the same compound, the TGI (HL-60(TB) leukemia) was over 100 µM.

With COc1ccccc1/C=N/N=C(\N)NO the TGI (KM12 colon) was over 100 µM, the TGI (MOLT-4 leukemia) was over 100 µM and the TGI (ACHN renal) was over 100 µM. It also gave a TGI (SN12C renal) of over 100 µM, a TGI (OVCAR-3 ovarian) of over 100 µM and a TGI (LOX IMVI melanoma) of over 100 µM. The TGI (SK-OV-3 ovarian) was over 100 µM and the TGI (SF-539 CNS) was 9.4 µM.

Work on COc1cc(-c2oc3c(OC)c(O)c(OC)c(O)c3c(=O)c2OC)ccc1O yielded a TGI (KM12 colon) of over 100 µM, a TGI (MOLT-4 leukemia) of over 100 µM and a TGI (ACHN renal) of over 100 µM. The TGI (SN12C renal) was over 100 µM, the TGI (OVCAR-3 ovarian) was 67.8 µM and the TGI (LOX IMVI melanoma) was over 100 µM. The TGI (SK-OV-3 ovarian) was 54.6 µM, the TGI (SF-539 CNS) was over 100 µM and the TGI (HL-60(TB) leukemia) was over 100 µM.

In the case of COc1cc([N+](=O)[O-])c(OC)cc1-c1nc2sc(Cl)cn2c1/C=N/NC(=N)N/N=C/c1c(-c2cc(OC)c([N+](=O)[O-])cc2OC)nc2sc(Cl)cn12, the GI50 (KM12 colon) is reported as 1.54 µM, the TGI (KM12 colon) is reported as 2.95 µM and the GI50 (ACHN renal) is reported as 2.23 µM. The TGI (ACHN renal) was 4.88 µM, the GI50 (SF-539 CNS) was 0.387 µM and the TGI (SF-539 CNS) was 1.8 µM.

With COc1cc2cccc(NC(=O)c3cc(OC)c(OC)c(OC)c3Br)c2cc1OC the TGI (KM12 colon) was 27.5 µM, the TGI (MOLT-4 leukemia) was 8.81 µM and the TGI (ACHN renal) was 75.5 µM. For the same compound, the TGI (SN12C renal) was over 100 µM, the TGI (SNB-75 CNS) was 74.8 µM and the TGI (OVCAR-3 ovarian) was 47.5 µM. It also gave a TGI (SK-OV-3 ovarian) of 59.2 µM and a TGI (SF-539 CNS) of 46.8 µM.

For N#C[S-].[Au+].c1ccc(CN2[CH-]N(Cc3ccccc3)C(c3ccccc3)=C2c2ccccc2)cc1, the GI50 (KM12 colon) was 0.527 µM, the TGI (KM12 colon) was 2.79 µM and the GI50 (SNB-75 CNS) was 0.385 µM. It also gave a TGI (SNB-75 CNS) of 2.65 µM, a GI50 (OVCAR-3 ovarian) of 0.351 µM and a TGI (OVCAR-3 ovarian) of 1.3 µM. The GI50 (SK-OV-3 ovarian) was 0.391 µM, the TGI (SK-OV-3 ovarian) was 3.63 µM and the GI50 (SF-539 CNS) was 0.629 µM. The TGI (SF-539 CNS) was 2.13 µM, the GI50 (HL-60(TB) leukemia) was 0.414 µM and the TGI (HL-60(TB) leukemia) was 2.34 µM.

Compound C=C1C(=O)O[C@H]2[C@H]1CC/C(CNS(=O)(=O)c1cccc3ccccc13)=C\CC[C@@]1(C)O[C@@H]21 has a GI50 (KM12 colon) of 9.76 µM, a TGI (KM12 colon) of 25.8 µM and a GI50 (MOLT-4 leukemia) of 1.87 µM. The TGI (MOLT-4 leukemia) was 5.27 µM, the GI50 (ACHN renal) was 1.19 µM and the TGI (ACHN renal) was 2.56 µM. For the same compound, the GI50 (SN12C renal) was 2.12 µM, the TGI (SN12C renal) was 7.74 µM and the GI50 (OVCAR-3 ovarian) was 1.16 µM. For the same compound, the TGI (OVCAR-3 ovarian) was 2.48 µM, the GI50 (LOX IMVI melanoma) was 1.45 µM and the TGI (LOX IMVI melanoma) was 2.93 µM. It also gave a GI50 (SK-OV-3 ovarian) of 12.1 µM, a TGI (SK-OV-3 ovarian) of 24.5 µM and a GI50 (SF-539 CNS) of 1.77 µM. For the same compound, the TGI (SF-539 CNS) was 4.02 µM, the GI50 (HL-60(TB) leukemia) was 1.21 µM and the TGI (HL-60(TB) leukemia) was 3.76 µM.
